For 5 molecules, IC50, inhibition and melting point results are on record in article PMC8161055, “Synthesis and α-Glucosidase Inhibition Activity of 2-[3-(Benzoyl/4-bromobenzoyl)-4-hydroxy-1,1-dioxido-2H-benzo[e][1,2]thiazin-2-yl]-N-arylacetamides: An In Silico and Biochemical Approach” (Molecules, 2021).

The target in one data set is aldose-reductase. Further details: method as in PMID 22036211. Particulars: cited from earlier work.
The target of a further data set is T1, α-glucosidase (Saccharomyces cerevisiae, UniProt P53341).
T1 construct: purchased Sigma-Aldrich, Munich, Germany
T1 sequence (P53341 whole entry): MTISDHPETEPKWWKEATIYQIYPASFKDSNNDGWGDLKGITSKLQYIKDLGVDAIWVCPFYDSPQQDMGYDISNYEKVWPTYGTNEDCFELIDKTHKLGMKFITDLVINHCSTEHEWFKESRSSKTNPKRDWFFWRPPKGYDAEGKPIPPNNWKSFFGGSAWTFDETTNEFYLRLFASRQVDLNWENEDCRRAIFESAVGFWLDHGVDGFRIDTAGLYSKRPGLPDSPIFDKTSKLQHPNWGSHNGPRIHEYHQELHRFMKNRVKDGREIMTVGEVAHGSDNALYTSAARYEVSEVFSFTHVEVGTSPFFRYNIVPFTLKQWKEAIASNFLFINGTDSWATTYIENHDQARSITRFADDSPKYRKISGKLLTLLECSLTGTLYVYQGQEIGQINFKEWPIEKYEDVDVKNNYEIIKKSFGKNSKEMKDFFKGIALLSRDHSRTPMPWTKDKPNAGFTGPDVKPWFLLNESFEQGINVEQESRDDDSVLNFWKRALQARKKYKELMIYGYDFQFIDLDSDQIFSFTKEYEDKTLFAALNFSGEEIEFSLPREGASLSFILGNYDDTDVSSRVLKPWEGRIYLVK
The experiment in a line: biochemical. In kind it is biochemical. Particulars: read-out: Inhibitions (%). The protocol: In vitro analysis of all the synthesized compounds was performed in order to justify the validity of in silico outcomes. Results were found in good agreement with the in silico study. […] A general spectrophotometric technique was used to perform the α-glucosidase inhibition assay with slight modifications. […] The experiment was repeated thrice and inhibition percentages were calculated using the following formula. % Inhibition = [(A control − A sample) / A control] × 100(1) where ‘A’ stands for absorbance.

The test system of a further data set is SARS-CoV-2. On the set-up: method as in PMID 33160024. Particulars: cited from earlier work.
Another data set deals with human 11β-HSD1. Further details: method as in PMID 21212546. Particulars: cited from earlier work.

One may read the IC50 as the concentration that gives 50% inhibition. Turning to `O=C(O)C=C1CN(Cc2ccc(Br)cc2F)S(=O)(=O)c2ccccc21` [2-(2-(4-bromo-2-fluorobenzyl)-1,1-dioxido-2H-benzo[e][1,2]thiazin-4(3H)-ylidene)acetic acid], on aldose-reductase, the IC50 was 110 nM. What is called melting point is the temperature, or range, at which the solid turns liquid. Consider `O=C(CN1C(C(=O)c2ccc(Br)cc2)=C(O)c2ccccc2S1(=O)=O)Nc1ccc(Br)cc1` [Compound 12k, 2-(3-(4-Bromobenzoyl)-4-hydroxy-1,1-dioxido-2H-benzo[e][1,2]thiazin-2-yl)-N-(4-bromophenyl)acetamide], for which the melting point was in the range of 200 to 203 °C. For the same molecule, at α-glucosidase, the inhibition at 200 µM was 48%.

The molecule `COc1ccccc1NC(=O)CN1C(C(=O)c2ccc(Br)cc2)=C(O)c2ccccc2S1(=O)=O` [Compound 12l, 2-(3-(4-Bromobenzoyl)-4-hydroxy-1,1-dioxido-2H-benzo[e][1,2]thiazin-2-yl)-N-(2-methoxyphenyl)acetamide] displayed a melting point of 186 to 187 °C. In addition, the inhibition at 200 µM on α-glucosidase worked out at 34%. As to `O=C(CN1C(C(=O)Nc2ccc(F)c(Cl)c2)=C(O)c2ccc(F)cc2S1(=O)=O)Nc1ccc(C(F)(F)F)cc1` [compound 4], the IC50 in the data set on SARS-CoV-2 was 880 nM. On to `O=C(CN1C(C(=O)Nc2ccccc2)=C(O)c2ccccc2S1(=O)=O)Nc1cccc(C(F)(F)F)c1` [derivative 3], for which the IC50 in the data set on human 11β-HSD1 is 41 nM.
